Results: patent US4633014A, “Substituted 3-hydrazinopropionates” (priority 1983, dated 1986)
Counter-ions that a name gives are not always drawn.

Experiments:
[1] = test system: arrhythmia induced by an intravenous administration of calcium chloride; test: Antiarrhythmic activity on a model of arrhythmia induced by intravenous calcium chloride (antagonism to calcium) in mice; type: in vivo; details: white mice, 20-40 minutes before
How it was run: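 Urethane-anaesthetised (1,200 mg/kg i.p.) white mice of both sexes, 18-25 g, with lead II ECG; 2% CaCl2 infused into the tail vein at 0.01 ml per 2 sec. Doses of CaCl2 producing arrhythmia and heart arrest were determined. Test compounds were given i.p. 20-40 min before infusion.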

in vivo = details: mouse, in vivo, ip
How it was run: (§1)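 Acute toxicity in white mice of 20-25 g, with compounds given intraperitoneally as aqueous solutions or Twin-80 suspensions. Animals observed for 10 days.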

white mice = test: in vivo
How it was run: as §1

[2] = currently employed in medicine; cited from earlier work

CN(C)N(CCC(=O)O)C(=O)Nc1ccccc1 [I-64, Potassium salt of 3-(2,2-dimethyl-1-phenylcarbamoylhydrazino)-methylpropionate]
Dose of calcium chloride causing arrythmia in animals under experiment ([1]; intraperitoneal dose 5 mg/kg): 98 mg/kg | Dose of calcium chloride causing death in animals under experiment ([1]; intraperitoneal dose 5 mg/kg): 147 mg/kg | Dose of calcium chloride causing arrythmia in animals under experiment ([1]; intraperitoneal dose 15 mg/kg): 141,7 mg/kg | Dose of calcium chloride causing death in animals under experiment ([1]; intraperitoneal dose 15 mg/kg): 163 mg/kg | LD50 at 240 h (in vivo): 1750 mg/kg | Relative toxisity to quinidine (white mice; mouse, in vivo, ip, 14400 min): 11,2

CCN(CC)CCNC(=O)c1ccc(N)cc1 [Procaineamide, procaine amide, reference compound]
Dose of calcium chloride causing arrythmia in animals under experiment ([1]; intraperitoneal dose 10 mg/kg): 116,0 mg/kg | Dose of calcium chloride causing death in animals under experiment ([1]; intraperitoneal dose 10 mg/kg): 120,0 mg/kg | Dose of calcium chloride causing arrythmia in animals under experiment ([1]; intraperitoneal dose 30 mg/kg): 127,0 mg/kg | Dose of calcium chloride causing death in animals under experiment ([1]; intraperitoneal dose 30 mg/kg): 138,0 mg/kg | LD50 at 240 h (in vivo): 290 mg/kg | acute toxicity (in words, background) [2]: high acute toxicity

C=C[C@H]1C[N@@]2CC[C@H]1C[C@@H]2[C@@H](O)c1ccnc2ccc(OC)cc12 [Quinidine, quinidine, reference compound]
Dose of calcium chloride causing arrythmia in animals under experiment ([1]; intraperitoneal dose 3 mg/kg): 126,9 mg/kg | Dose of calcium chloride causing death in animals under experiment ([1]; intraperitoneal dose 3 mg/kg): 136,0 mg/kg | Dose of calcium chloride causing arrythmia in animals under experiment ([1]; intraperitoneal dose 10 mg/kg): 120,8 mg/kg | Dose of calcium chloride causing death in animals under experiment ([1]; intraperitoneal dose 10 mg/kg): 133,5 mg/kg | LD50 at 240 h (in vivo): 156 mg/kg | Relative toxisity to quinidine (white mice; white mice, intraperitoneal, relative to quinidine): 1 | acute toxicity (in words, background) [2]: high acute toxicity
